Our source for the IC50 values is patent US10533006B2, “Nitrogen-containing heterocycle and carbocycle derivatives having TrkA inhibitory activity” (Shionogi & Co., Ltd., priority 2016, dated 2020).

This test concerns the target T1, human TrkA (Homo sapiens, UniProt P04629).
T1 construct: purchased Lifetechnologies PV3144
In words: Human TrkA inhibition assay. The note with it: human TrkA phosphorylation inhibition, ATP 500 μmol/L; read-out: IC50_nM. The test is classed as biochemical. Here is the method: Seven point five L per well of human TrkA (PV3144, Lifetechnologies, final concentration: 1 nmol/L) suspended in the assay buffer (100 mmol/L 4-(2-hydroxyethyl)-1-piperazineethanesulfonic acid (HEPES), 10 mmol/L magnesium chloride, 0.003 vol % Brij-35, 0.004 vol % Tween20 and 1 mmol/L dithiothreitol (DTT)) was applied in a 384 well plate and the plate was pre-incubated for 15 min at room temperature with 0.4 μL of each compound (final concentration: 200 μmol/L-0.1 nM) dissolved in DMSO. Then, fluorescent substrate (FL-peptide 27, 760424, PerkinElmer, final concentration: 1.5 μmol/L) and ATP (final concentration 500 μmol/L) dissolved in the assay buffer was added in each well. After the incubation of 120 min at 37° C., fifteen μL of termination buffer (100 mmol/L HEPES, 40 mmol/L ethylenediaminetetraacetic acid (EDTA), 10 mmol/L magnesium chloride, 0.003 vol % Brij-35, 0.004 vol % Tween20, 1 mmol/L DTT and 0.16 vol % Coating Reagent 3) was added in each well to stop the enzyme reaction. Fluorescent intensities (FI) of phosphorylated and non-phosphorylated fluorescent substrates were measured by LabChip EZReader II (Caliper LifeSciences, Inc.), and conversion ratio (CR) was calculated by the following formula-1. The CR in the well applied with DMSO alone was used as a negative control and the CR in the well without applying TrkA was used as a positive control. The inhibitory effect of each compound on TrkA phosphorylation was calculated by the following formula-2. CR (%)=(FI of phosphorylated substrate/(FI of phosphorylated substrate+FI of non-phosphorylated substrate))×100 (Formula-1) Phosphorylation inhibition (%)=(1−(CR with compound treatment−CR of positive control)/(CR of negative control−CR of positive control))×100 (Formula-2)
IC50 values (nmol/L) were determined by the logistic regression using the inhibition data in 10 points of 3-fold dilution series at a compound concentration range of 2 μmol/L to 0.1 nmol/L, or 15 points of 3-fold dilution series at the range of 200 μmol/L to 0.04 nmol/L.

T1 sequence (P04629 33-796): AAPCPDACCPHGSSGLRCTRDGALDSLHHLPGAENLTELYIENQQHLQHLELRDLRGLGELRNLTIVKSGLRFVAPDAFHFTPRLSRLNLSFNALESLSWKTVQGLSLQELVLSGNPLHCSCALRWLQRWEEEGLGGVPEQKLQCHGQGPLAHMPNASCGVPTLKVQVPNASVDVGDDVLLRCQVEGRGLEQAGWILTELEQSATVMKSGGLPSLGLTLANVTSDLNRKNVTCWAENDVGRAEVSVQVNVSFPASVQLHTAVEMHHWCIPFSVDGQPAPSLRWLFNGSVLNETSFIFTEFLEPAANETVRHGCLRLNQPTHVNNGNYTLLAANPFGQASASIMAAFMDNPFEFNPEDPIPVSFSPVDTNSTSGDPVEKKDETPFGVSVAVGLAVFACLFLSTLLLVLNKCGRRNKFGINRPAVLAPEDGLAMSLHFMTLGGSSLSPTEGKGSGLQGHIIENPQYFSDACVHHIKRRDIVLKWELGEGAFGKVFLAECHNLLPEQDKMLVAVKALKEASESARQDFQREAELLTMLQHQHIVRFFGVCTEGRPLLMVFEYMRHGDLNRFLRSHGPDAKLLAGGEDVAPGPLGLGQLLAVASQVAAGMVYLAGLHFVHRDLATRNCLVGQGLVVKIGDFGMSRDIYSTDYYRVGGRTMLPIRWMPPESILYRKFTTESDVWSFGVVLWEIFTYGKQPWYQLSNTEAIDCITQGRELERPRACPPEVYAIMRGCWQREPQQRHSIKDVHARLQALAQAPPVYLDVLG

Consider `COCCN1C[C@@H](NC(=O)Nc2c(C)c(-c3cnn(C)c3)nn2-c2ccccc2)[C@H](c2ccnc(F)c2F)C1` (racemic) [Compound I-162], for which the IC50 was under 100 nM. As for `CCNC(=O)c1cc(-c2nn(-c3ccccc3)c(NC(=O)N[C@@H]3CN(CCOC)C[C@H]3c3ccccc3)c2C)ccn1` (racemic) [Compound I-46], the IC50 is under 100 nM. For `COCC[C@@H]1C[C@@H](NC(=O)Nc2c(C)c(-c3ccc(N=S(C)(C)=O)nc3)nn2-c2ccccc2)[C@H](c2ccccc2)C1` [Compound I-152], the IC50 was under 100 nM. In the case of `CNC(=O)c1ccc(-c2nn(-c3ccccc3)c(NC(=O)N[C@@H]3CN(CCOC)C[C@H]3c3ccccc3)c2C)cn1` (racemic) [Compound I-35] it was under 100 nM; in that of `COCCN1C[C@@H](NC(=O)Nc2c(C)c(N3CCc4nn(C)cc4C3)nn2-c2ccccc2)[C@H](c2ccccc2)C1` [Compound I-59], under 100 nM; in that of `COCC[C@@H]1C[C@@H](NC(=O)Nc2c(C)c(-c3cc(C(=O)NOCc4ccccc4)c(=O)n(C)c3)nn2-c2ccccc2)[C@H](c2ccccc2)C1` [Compound I-119], under 100 nM. As to `COCCN1C[C@@H](NC(=O)Nc2c(C)c(-c3cnc(OC)c(C(=O)N[C@@H]4CCCOC4)c3)nn2-c2ccccc2)[C@H](c2ccccc2)C1` [Compound I-78], the IC50 was under 100 nM. In the case of `COCCN1C[C@@H](NC(=O)Nc2c(C)c(-c3ccnc(C(=O)NOC)c3)nn2-c2ccccc2)[C@H](c2ccc(F)c(F)c2)C1` [Compound I-156] it was under 100 nM; in that of `CNC(=O)c1ncc(-c2nn(-c3ccccc3)c(NC(=O)N[C@@H]3CN(CCOC)C[C@H]3c3ccccc3)c2C)cc1C` (racemic) [Compound I-61], under 100 nM. Then `COCCN1C[C@@H](NC(=O)Nc2c(C)c(N3CCc4c(cnn4C)C3)nn2-c2ccccc2)[C@H](c2ccccc2)C1` [Compound I-58], with under 100 nM. Then `COCCN1C[C@@H](NC(=O)Nc2c(C)c(-c3cnc4c(c3)c(C)nn4C)nn2-c2ccccc2)[C@H](c2ccnc(F)c2)C1` (racemic) [Compound I-104], with under 100 nM; and `CCN1CCC(NC(=O)c2ccc(-c3nn(-c4ccccc4)c(NC(=O)N[C@@H]4C[C@@H](CCOC)N(C)[C@H]4c4ccc(F)c(F)c4)c3C)cc2)CC1` [Compound I-25], with under 100 nM; and `CNC(=O)c1cc(-c2nn(-c3ccccc3)c(NC(=O)N[C@@H]3CN(CCOC)C[C@H]3c3ccccc3)c2C)cnc1OCC(F)F` (racemic) [Compound I-125], with under 100 nM. With `COCCN1C[C@@H](NC(=O)Nc2c(C)c(-c3ccnc(C(=O)N(C)C)c3)nn2-c2ccccc2)[C@H](c2ccccc2)C1` (racemic) [Compound I-47], the IC50 was under 100 nM. In the case of `COCCN1C[C@@H](NC(=O)Nc2c(C)c(-c3cnc4ncnn4c3)nn2-c2ccccc2)[C@H](c2ccccc2)C1` (racemic) [Compound I-33] it was under 100 nM; in that of `COCCN1C[C@@H](NC(=O)Nc2c(C)c(-c3cnc(OC)c(C(=O)NC4CCCCC4)c3)nn2-c2ccccc2)[C@H](c2ccccc2)C1` (racemic) [Compound I-77], under 100 nM; in that of `COCC[C@@H]1C[C@@H](NC(=O)Nc2c(C)c(-c3ccc(OCc4ccccc4)nc3)nn2-c2ccccc2)[C@H](c2ccccc2)C1` [Compound I-22], under 100 nM.

As to `CCN1CCC(NC(=O)c2ccc(-c3nn(-c4ccccc4)c(NC(=O)N[C@@H]4C[C@@H](CCOC)N[C@H]4c4ccc(F)c(F)c4)c3C)cc2)CC1` [Compound I-15], the IC50 was under 100 nM. Then `COCCN1C[C@@H](NC(=O)Nc2c(C)c(-c3cnc4c(c3)c(CO)nn4C)nn2-c2ccccc2)[C@H](c2ccccc2)C1` (racemic) [Compound I-65], with under 100 nM; and `COCCN1C[C@@H](NC(=O)Nc2c(C)c(-c3cnc(OC)c(C(=O)NC#N)c3)nn2-c2ccccc2)[C@H](c2ccccc2)C1` (racemic) [Compound I-146], with under 100 nM. Then `COCCN1C[C@@H](NC(=O)Nc2c(C)c(-c3cnc(OCF)c(C(=O)NC4CCOCC4)c3)nn2-c2ccccc2)[C@H](c2ccccc2)C1` (racemic) [Compound I-143], with under 100 nM. For the compound `COCCN1C[C@@H](NC(=O)Nc2c(C)c(-c3cnc(N=S(C)(C)=O)c(C)c3)nn2-c2ccccc2)[C@H](c2ccccc2)C1` (racemic) [Compound I-121], the IC50 is under 100 nM. In the case of `COCCN1C[C@@H](NC(=O)Nc2c(C)c(-c3ccc4c(cnn4C)c3)nn2-c2ccccc2)[C@H](c2cnc(F)c(F)c2)C1` (racemic) [Compound I-26], the IC50 is under 100 nM. Then `COCCN1C[C@@H](NC(=O)Nc2c(C)c(-c3cnc(OCCO)nc3)nn2-c2ccccc2)[C@H](c2ccccc2)C1` (racemic) [Compound I-31], with under 100 nM. In the case of `COCCN1C[C@@H](NC(=O)Nc2c(C)c(-c3cnc(OC)c(C(=O)NC4CCC(F)(F)CC4)c3)nn2-c2ccccc2)[C@H](c2ccccc2)C1` (racemic) [Compound I-83] it was under 100 nM; in that of `COCCOc1ncc(-c2nn(-c3ccccc3)c(NC(=O)N[C@@H]3CN(CCOC)C[C@H]3c3ccccc3)c2C)cc1C(=O)NC1CCOCC1` (racemic) [Compound I-141], under 100 nM; in that of `CCNC(=O)c1cc(-c2nn(-c3ccccc3)c(NC(=O)N[C@@H]3CN(CCOC)C[C@H]3c3ccccc3)c2C)cnc1OCC(F)F` (racemic) [Compound I-131], under 100 nM.

Take `COCCN1C[C@@H](NC(=O)Nc2c(C)c(-c3cnc4[nH]c(=O)oc4c3)nn2-c2ccccc2)[C@H](c2ccccc2)C1` (racemic) [Compound I-107]: the IC50 was under 100 nM.

For the compound `CCNC(=O)c1cc(-c2nn(-c3ccccc3)c(NC(=O)N[C@@H]3CN(CCOC)C[C@H]3c3ccccc3)c2C)cnc1OC(F)F` (racemic) [Compound I-134], the IC50 was under 100 nM. On to `COCCN1C[C@@H](NC(=O)Nc2c(C)c(-c3cnc4c(c3)c(=O)n(C)n4C)nn2-c2ccccc2)[C@H](c2ccccc2)C1` (racemic) [Compound I-99], for which the IC50 is under 100 nM. As to `COCCN1C[C@@H](NC(=O)Nc2c(C)c(-c3cnc4c(c3)nnn4C)nn2-c2ccccc2)[C@H](c2ccccc2)C1` (racemic) [Compound I-37], the IC50 is under 100 nM. In the case of `COCCN1C[C@@H](NC(=O)Nc2c(C)c(-c3ccnc(C(=O)NC4CCOCC4)c3)nn2-c2ccccc2)[C@H](c2ccccc2)C1` (racemic) [Compound I-29] it was under 100 nM; in that of `COCCN1C[C@@H](NC(=O)Nc2c(C)c(-c3cnn(C)c3)nn2-c2ccccc2)[C@H](c2cc(Cl)nc(Cl)c2)C1` (racemic) [Compound I-4], 100 to 1000 nM. Regarding `CNC(=O)c1cc(-c2nn(-c3ccccc3)c(NC(=O)N[C@@H]3CN(CCOC)C[C@H]3c3ccccc3)c2C)ccn1` (racemic) [Compound I-45], the IC50 is under 100 nM. In the case of `COCCN1C[C@@H](NC(=O)Nc2c(C)c(-c3cc(C(=O)N[C@@H]4CCOC4)c(=O)n(C)c3)nn2-c2ccccc2)[C@H](c2ccccc2)C1` (racemic) [Compound I-112] it was under 100 nM; in that of `CCNC(=O)c1cc(-c2nn(-c3ccccc3)c(NC(=O)N[C@@H]3CN(CCOC)C[C@H]3c3ccccc3)c2C)cnc1OC` (racemic) [Compound I-55], under 100 nM.

On to `COCCN1C[C@@H](NC(=O)Nc2c(C)c(-c3ccnc(C(=O)NC4CC(F)(F)C4)c3)nn2-c2ccccc2)[C@H](c2ccccc2)C1` (racemic) [Compound I-70], for which the IC50 was under 100 nM. Regarding `COCCN1C[C@@H](NC(=O)Nc2c(C)c(-c3cnn(C)c3)nn2-c2ccccc2)[C@H](c2cnc(F)c(Cl)c2)C1` (racemic) [Compound I-19], the IC50 is under 100 nM. In the case of `COCC[C@@H]1C[C@@H](NC(=O)Nc2c(C)c(-c3cc(C#N)c(=O)n(C)c3)nn2-c2ccccc2)[C@H](c2ccccc2)C1` [Compound I-154] it was under 100 nM.

Take `COCCN1C[C@@H](NC(=O)Nc2c(C)c(-c3cnc4cnn(C)c4c3)nn2-c2ccccc2)[C@H](c2ccccc2)C1` (racemic) [Compound I-28]: the IC50 was under 100 nM. For the compound `COCCN1C[C@@H](NC(=O)Nc2c(C)c(-c3ccc(C(=O)NCc4ccccc4)nc3)nn2-c2ccccc2)[C@H](c2ccccc2)C1` (racemic) [Compound I-27], the IC50 is under 100 nM. As to `CCNC(=O)c1cc(-c2nn(-c3ccccc3)c(NC(=O)N[C@@H]3CN(CCOC)C[C@H]3c3ccccc3)c2C)cn(CCOC)c1=O` (racemic) [Compound I-133], the IC50 was under 100 nM. Then `CNC(=O)c1cc(-c2nn(-c3ccccc3)c(NC(=O)N[C@@H]3C[C@@H](CCOC)C[C@H]3c3ccccc3)c2C)cnc1OC` [Compound I-144], with under 100 nM.
